Source: the supplement of paper PMC10307832

How the values were obtained:
Assay in all cases: relative viability (nuclei count vs DMSO), 5 days (fraction); higher = more cells survive
[1] = compound: C1COCCN1C2=NC(=NC3=C2OC4=C3C=CC=N4)C5=CC(=CC=C5)NC(=O)C6=CN=C(C=C6)N + Cc1nc(NC(=O)N2CCC[C@H]2C(N)=O)sc1-c1ccnc(C(C)(C)C(F)(F)F)c1 [Alpelisib] (partner 2 µM)
In short: (§1)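 Relative viability equals treated-well nuclei counts divided by vehicle-well nuclei counts. Counts came from 4× images of lung cancer cell lines grown in 1536-well plates for 5 days after pin-tool dosing on the day after seeding. Dosing used one drug alone or a fixed anchor-drug dose plus five library-drug doses (not always all listed) in √10 steps, and values are medians of duplicate plates.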

[2] = compound: CN1CCC(CNc2ccc3ncc(-c4cccc(OC(F)(F)F)c4)n3n2)CC1 [SGI-1776] + C[C@@H](Oc1cc(-c2cnn(C3CCNCC3)c2)cnc1N)c1c(Cl)ccc(F)c1Cl [Crizotinib] (partner 1 µM)
In short: as §1

[3] = compound: CN1CCC(CNc2ccc3ncc(-c4cccc(OC(F)(F)F)c4)n3n2)CC1 [SGI-1776] + Cc1nc(NC(=O)N2CCC[C@H]2C(N)=O)sc1-c1ccnc(C(C)(C)C(F)(F)F)c1 [Alpelisib] (partner 2 µM)
In short: as §1

[4] = compound: Nc1ccccc1NC(=O)c1ccc(CNC(=O)OCc2cccnc2)cc1 [Entinostat] + Cc1nc(NC(=O)N2CCC[C@H]2C(N)=O)sc1-c1ccnc(C(C)(C)C(F)(F)F)c1 [Alpelisib] (partner 2 µM)
In short: as §1

Cell Line | relative viability ([1]; first compound 0.02 µM) | relative viability ([1]; first compound 0.06325 µM) | relative viability ([1]; first compound 0.2 µM) | relative viability ([1]; first compound 0.6325 µM) | relative viability ([1]; first compound 2 µM) | relative viability ([2]; first compound 0.08 µM) | relative viability ([2]; first compound 0.8 µM) | relative viability ([2]; first compound 2.53 µM) | relative viability ([2]; first compound 8 µM) | relative viability ([3]; first compound 0.08 µM) | relative viability ([3]; first compound 0.8 µM) | relative viability ([3]; first compound 2.53 µM) | relative viability ([3]; first compound 8 µM) | relative viability ([4]; first compound 0.02 µM) | relative viability ([4]; first compound 0.06325 µM) | relative viability ([4]; first compound 0.2 µM) | relative viability ([4]; first compound 0.6325 µM) | relative viability ([4]; first compound 2 µM)
HCC-366 | 0.575 | 0.471 | 0.314 | 0.287 | 0.189 | 0.549 | 0.557 | 0.393 | 0.098 | 0.51 | 0.335 | 0.372 | 0.189 | 0.537 | 0.521 | 0.43 | 0.327 | 0.0475
HCC-827 | 0.984 | 0.92 | 0.958 | 0.961 | 0.815 | 0.956 | 0.975 | 0.985 | 0.915 | 1.08 | 0.993 | 1.06 | 0.849 | 0.836 | 0.848 | 0.607 | 0.532 | 0.359
HOP-62 | 0.818 | 1.13 | 0.947 | 0.979 | 0.518 | 0.998 | 0.854 | 0.839 | 0.969 | 0.914 | 0.942 | 0.979 | 0.807 | 1.02 | 0.9 | 0.929 | 0.599 | 0.348
IA-LM |  | 0.853 | 0.582 | 0.609 | 0.43 | 0.514 | 0.989 |  | 0.69 | 0.883 | 0.977 | 0.764 | 0.874 | 0.706 | 0.741 | 0.98 | 0.566 | 0.481
LC-2-ad | 0.824 | 0.83 | 0.893 | 0.782 | 0.531 | 0.53 | 0.47 | 0.414 | 0.36 | 1.06 | 1 | 0.94 | 0.731 | 0.864 | 0.777 | 0.761 | 0.348 | 0.187
LCLC-97TM1 |  | 0.265 | 0.208 | 0.313 | 0.249 | 0.383 | 0.384 | 0.342 | 0.198 | 0.195 | 0.238 | 0.239 | 0.22 | 0.262 | 0.224 | 0.245 | 0.225 | 0.156
LCLC-103H | 0.87 | 0.993 | 0.962 | 0.967 | 0.878 | 1.03 | 1.04 | 1.03 | 0.958 | 0.996 | 0.862 | 0.939 | 0.924 | 1.04 | 1.09 | 0.894 | 0.783 | 0.571
LK-2 | 1.07 | 1.15 | 1.2 | 1.06 | 0.856 | 0.228 | 0.228 | 0.258 | 0.25 | 0.93 | 1.06 | 0.829 | 0.793 | 1.1 | 1.03 | 1.04 | 0.692 | 0.421
LOU-NH91 | 0.696 | 0.728 | 0.768 | 0.749 | 0.667 | 0.776 | 0.747 | 0.693 | 0.593 | 0.783 | 0.691 | 0.707 | 0.533 | 0.701 | 0.747 | 0.718 | 0.592 | 0.605
